Experiment [1] concerns the target T1, PDE6D (Homo sapiens, UniProt O43924). In words: T7 phage display competition binding assay (immobilized atorvastatin), PDE6D. Details: made in house; host or cells: T7 phage amplified in E. coli. The conditions noted are these: soluble competitor vs atorvastatin-coated affinity matrix; T7 phage displaying human PDE6D. The source says:
(§1) The T7 phage displaying human PDE6D and CLB2 were obtained following the procedure of WO 01/18234, published Mar. 15, 2001, and U.S. patent applications Ser. No. 10/115,442, “Phage Display Affinity Filter and Forward Screen,” filed Apr. 2, 2002 and Ser. No. 10/214,654, “Uncoupling DNA Insert Propagation and Protein Display,” filed Aug. 7, 2002. […] The phage eluate was then amplified by growth in E. coli and the affinity enrichment procedure was repeated.
(§2) The dissociation constants, Kd's, for the interaction between the pyrrole compounds and the novel targets were obtained following the procedure of the co-pending patent applications U.S. Ser. Nos. 10/115,442, “Phage Display Affinity Filter and Forward Screen,” filed Apr. 2, 2002 and 60/480,587, “Protein Family Profiling Tool and Methods,” filed Jun. 20, 2003.

Another experiment addresses T2, CLB2 (Homo sapiens, UniProt P22676).
T2 construct: made in house; host or cells: T7 phage amplified in E. coli
T2 sequence (P22676 1-271): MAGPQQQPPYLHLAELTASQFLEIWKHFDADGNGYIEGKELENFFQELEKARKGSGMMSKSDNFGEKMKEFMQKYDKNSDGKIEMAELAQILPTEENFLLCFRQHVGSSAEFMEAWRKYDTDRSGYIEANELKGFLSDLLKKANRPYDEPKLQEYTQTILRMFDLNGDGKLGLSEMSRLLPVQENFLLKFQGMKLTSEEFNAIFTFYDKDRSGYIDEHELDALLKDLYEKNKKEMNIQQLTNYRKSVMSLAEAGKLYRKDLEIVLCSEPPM
In words: T7 phage display competition binding assay (immobilized atorvastatin), CLB2. The conditions noted are these: soluble competitor vs atorvastatin-coated affinity matrix; T7 phage displaying CLB2.
From the text: as §1, §2

For experiment [2], the target named is T1, PDE6D. The experiment can be described thus: phage-based competition binding screen at 2 μM. More on the design: made in house; host or cells: phage. The following applies: 2 μM competitor, duplicate. On the procedure:
Forty-four molecules were screened for PDE6D binding activity in a standard phage-based competition binding assay, as described in co-pending U.S. patent applications Ser. No. 10/115,442, filed 2 Apr. 2002, and Ser. No. 10/406,797 filed on 2 Apr. 2003 (or PCT International Application PCT/US03/10247 filed 2 Apr. 2003). All compounds were screened in duplicate (duplicate sets of bars) at a concentration of 2 μM.

In a further experiment the target is T3, HMG-CoA reductase (Homo sapiens, UniProt P04035).
T3 sequence (P04035 1-888): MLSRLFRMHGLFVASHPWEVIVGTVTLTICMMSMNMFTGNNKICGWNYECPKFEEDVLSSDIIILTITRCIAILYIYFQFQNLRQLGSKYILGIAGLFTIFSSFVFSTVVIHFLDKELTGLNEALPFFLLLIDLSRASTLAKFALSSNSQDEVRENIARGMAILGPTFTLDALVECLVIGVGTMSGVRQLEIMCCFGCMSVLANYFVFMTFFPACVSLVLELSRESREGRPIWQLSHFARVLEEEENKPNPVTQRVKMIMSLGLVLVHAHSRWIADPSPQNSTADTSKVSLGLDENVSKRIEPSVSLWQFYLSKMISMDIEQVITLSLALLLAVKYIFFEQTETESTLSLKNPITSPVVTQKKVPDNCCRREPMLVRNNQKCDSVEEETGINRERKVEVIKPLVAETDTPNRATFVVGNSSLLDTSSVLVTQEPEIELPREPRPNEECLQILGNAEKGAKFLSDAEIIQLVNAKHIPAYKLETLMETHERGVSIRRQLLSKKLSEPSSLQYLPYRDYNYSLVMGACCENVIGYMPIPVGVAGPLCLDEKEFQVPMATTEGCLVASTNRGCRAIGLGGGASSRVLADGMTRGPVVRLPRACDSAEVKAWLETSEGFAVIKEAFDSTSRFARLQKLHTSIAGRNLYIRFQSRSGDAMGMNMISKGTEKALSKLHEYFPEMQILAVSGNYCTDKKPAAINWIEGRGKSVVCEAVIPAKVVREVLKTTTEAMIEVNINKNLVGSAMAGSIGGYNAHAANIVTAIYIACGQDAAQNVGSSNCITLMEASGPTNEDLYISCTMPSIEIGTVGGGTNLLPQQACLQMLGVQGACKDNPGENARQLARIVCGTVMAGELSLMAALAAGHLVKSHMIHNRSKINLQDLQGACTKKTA
The experiment can be described thus: enzymatic activity-based HMG-CoA reductase assay. In kind it is biochemical. The conditions noted are these: concentrations up to 4 μM. The method, then:
In addition, compounds 781430, 781066, 780780, 780754, 779974, 781456, 782236, 782756, 783250 and 780520 were tested in enzymatic activity-based HMG-CoA reductase assays. […] Blank cells indicate there was no detectable interaction while the “nd” designation indicates the Kd was not determined.

As a reminder, the Kd is the constant that tells how readily two partners part at equilibrium. A low value points to higher affinity. In the case of `CC(C)c1c(C(=O)Nc2ccccc2)c(-c2ccccc2)c(-c2ccc(F)cc2)n1Cc1ccccc1` [Compound 780000], on PDE6D [1], the affinity, expressed as Kd, was 598 nM. `CCOC(=O)CCn1c(-c2ccc(F)cc2)c(-c2ccccc2)c(C(=O)Nc2ccccc2)c1C(C)C` [Compound 780026]: the Kd at PDE6D [1] is 6550 nM. In the case of `CC(C)c1c(C(=O)Nc2ccccc2)c(-c2ccccc2)c(-c2ccc(F)cc2)n1CCN1CCOCC1` [Compound 780052], the results for the Kd at CLB2 and at PDE6D [1] were 6000 nM and 387 nM, respectively.

Regarding `CC(C)c1c(C(=O)Nc2ccccc2)c(-c2ccccc2)c(-c2ccc(F)cc2)n1CCO` [Compound 780078], the figures for the Kd on CLB2 and at PDE6D [1] were 2340 nM and 488 nM, respectively. In the case of `CC(C)c1c(C(=O)Nc2ccccc2)c(-c2ccccc2)c(-c2ccc(F)cc2)n1C` [Compound 780104], the figures for the Kd at CLB2 and on PDE6D [1] were 6070 nM and 114 nM, respectively. The “fraction of PDE6D-displaying phage bound to immobilized atorvastatin (screen outcome)” value (shortened to “fraction of PDE6D-displaying phage bound”) at PDE6D [2] is reported as “candidate lead compounds”. For the compound `CC(C)c1c(C(=O)Nc2ccccc2)c(-c2ccccc2)c(-c2ccc(F)cc2)n1CCCN1CCCC1=O` [Compound 780520], the Kd at CLB2 amounted to 1850 nM; on PDE6D [1], 44 nM. On HMG-CoA reductase, the “inhibition of the activity of HMG-CoA reductase” value was “none of the tested compounds inhibited”. On PDE6D [2], the “fraction of PDE6D-displaying phage bound” value was “candidate lead compounds”.

`CC(C)c1c(C(=O)Nc2ccccc2)c(-c2ccccc2)c(-c2ccc(F)cc2)n1CC(=O)OC(C)(C)C` [Compound 780546] returned a Kd at PDE6D [1] of 880 nM. With `CC(C)c1c(C(=O)Nc2ccccc2)c(-c2ccccc2)c(-c2ccc(F)cc2)n1CCOCCO` [Compound 780598], on PDE6D [1], the dissociation constant (Kd) was 300 nM. In the case of `CC(C)c1c(C(=O)Nc2ccccc2)c(-c2ccccc2)c(-c2ccc(F)cc2)n1[C@H](C)C(=O)OC(C)(C)C` [Compound 780650], the Kd at CLB2 was 2100 nM.

For the compound `CC(C)c1c(C(=O)Nc2ccccc2)c(-c2ccccc2)c(-c2ccc(F)cc2)n1CCCCCO` [Compound 780676], the Kd is 1890 nM on CLB2 and 61 nM at PDE6D [1]. At PDE6D [2], the “fraction of PDE6D-displaying phage bound” value is recorded as “candidate lead compounds”.

`CC(C)c1c(C(=O)Nc2ccccc2)c(-c2ccccc2)c(-c2ccc(F)cc2)n1CCCCCCO` [Compound 780702]: the equilibrium dissociation constant (Kd) at CLB2 worked out at 2000 nM; at PDE6D [1], 114 nM. The like results for `CC(C)c1c(C(=O)Nc2ccccc2)c(-c2ccccc2)c(-c2ccc(F)cc2)n1CCCCCCC(=O)O` [Compound 780728] were, in that order, 1650 nM and 350 nM. In the case of `CC(=O)NCCn1c(-c2ccc(F)cc2)c(-c2ccccc2)c(C(=O)Nc2ccccc2)c1C(C)C` [Compound 780754], the Kd at CLB2 was determined as 1830 nM; on PDE6D [1], 58 nM. In addition, the “inhibition of the activity of HMG-CoA reductase” value against HMG-CoA reductase is given as “none of the tested compounds inhibited”.

On to `CC(C)c1[nH]c(-c2ccccc2)c(-c2ccccc2)c1C(=O)Nc1ccccc1` [Compound 780858], for which the values for the equilibrium dissociation constant (Kd) at CLB2 and on PDE6D [1] were 1640 nM and 60 nM, respectively. Further, the “fraction of PDE6D-displaying phage bound” value on PDE6D [2] is “candidate lead compounds”. As to `COCC(C(O)c1ccccc1)n1c(-c2ccc(F)cc2)c(-c2ccccc2)c(C(=O)Nc2ccccc2)c1C(C)C` (centres unmarked) [Compound 780910], the figures for the Kd on CLB2 and on PDE6D [1] were 1000 nM and 280 nM, respectively.

As to `CCC(C)C(CO)n1c(-c2ccc(F)cc2)c(-c2ccccc2)c(C(=O)Nc2ccccc2)c1C(C)C` (centres unmarked) [Compound 780936], the Kd on CLB2 was found to be 3000 nM; at PDE6D [1], 141 nM.

Regarding `COc1ccc(-c2[nH]c(C(C)C)c(C(=O)Nc3ccccc3)c2-c2ccccc2)cc1` [Compound 780988], the figures for the Kd at CLB2 and on PDE6D [1] were 6000 nM and 430 nM, respectively. At PDE6D [1], `CCCCCn1c(-c2ccc(F)cc2)c(-c2ccccc2)c(C(=O)Nc2ccccc2)c1C(C)C` [Compound 782366] gave a Kd of 805 nM. With `CC(C)c1c(C(=O)Nc2ccccc2)c(-c2ccccc2)c(-c2ccc(F)cc2)n1CC[C@@H]1C[C@H](CC(=O)O)OC(C)(C)O1` [Compound 782964], the Kd on CLB2 was found to be 9000 nM; on PDE6D [1] it was 685 nM. As for `CC(C)c1c(C(=O)Nc2ccccc2)c(-c2ccccc2)c(-c2ccc(F)cc2)n1CCS(=O)O` [Compound 783666], binding on CLB2 was put at a Kd of 1850 nM. On to `CC(C)c1c(C(=O)Nc2ccccc2)c(-c2ccccc2)c(-c2ccc(F)cc2)n1CC(O)CC(=O)O` (centres unmarked) [Compound 783770], for which the Kd on CLB2 turned out to be 335 nM; at PDE6D [1], 1100 nM.

The values are drawn from patent US7323490B2, “Pyrrole compounds and uses thereof” (Ambit Biosciences Corporation, priority 2003, dated 2008).
